According to PubChem BioAssay (NCI):
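These data come from cells grown in 96-well plates and exposed to compound for 48 hours at five concentrations. GI50: concentration for 50% inhibition of growth. Definition used: TGI = concentration required for complete inhibition of growth.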

Assays:
Assay in all cases: growth of human tumour cells (NCI), 48 h
U251 CNS = tested on: U251 CNS
HCT-15 colon = tested on: HCT-15 colon
SR leukemia = tested on: SR leukemia
NCI-H460 lung = tested on: NCI-H460 lung
PC-3 prostate = tested on: PC-3 prostate
SK-MEL-2 melanoma = tested on: SK-MEL-2 melanoma
SK-OV-3 ovarian = tested on: SK-OV-3 ovarian
LOX IMVI melanoma = tested on: LOX IMVI melanoma
NCI-H522 lung = tested on: NCI-H522 lung
A498 renal = tested on: A498 renal

Molecule `Clc1nc(Cl)c2ncn(-c3ccccc3)c2n1` has a GI50 (U251 CNS) of 1.8 µM, a TGI (U251 CNS) of 3.73 µM and a GI50 (HCT-15 colon) of 3.42 µM. For the same molecule, the TGI (HCT-15 colon) was 16 µM, the GI50 (SR leukemia) was 2.73 µM and the TGI (SR leukemia) was 9.51 µM. For the same molecule, the GI50 (NCI-H460 lung) was 6.24 µM, the TGI (NCI-H460 lung) was 23.5 µM and the GI50 (PC-3 prostate) was 5.29 µM. For the same molecule, the TGI (PC-3 prostate) was 20.1 µM, the GI50 (SK-MEL-2 melanoma) was 13.8 µM and the TGI (SK-MEL-2 melanoma) was 27.1 µM. For the same molecule, the GI50 (SK-OV-3 ovarian) was 12.5 µM, the TGI (SK-OV-3 ovarian) was 25 µM and the GI50 (LOX IMVI melanoma) was 1.67 µM. It also gave a TGI (LOX IMVI melanoma) of 3.28 µM, a GI50 (NCI-H522 lung) of 1.9 µM and a TGI (NCI-H522 lung) of 5.09 µM. The GI50 (A498 renal) was 12 µM and the TGI (A498 renal) was 25 µM.
`O=C1/C(=C/c2ccc(Cl)cc2)CN(Cc2cn(CCCNc3ccnc4cc(Cl)ccc34)nn2)C/C1=C\c1ccc(Cl)cc1` was tested, and the GI50 (U251 CNS) was 0.269 µM, the TGI (U251 CNS) was 0.9 µM and the GI50 (HCT-15 colon) was 0.283 µM. The TGI (HCT-15 colon) was 0.926 µM, the GI50 (SR leukemia) was 0.379 µM and the TGI (SR leukemia) was 1.93 µM. The GI50 (NCI-H460 lung) was 0.429 µM, the TGI (NCI-H460 lung) was 2.06 µM and the GI50 (PC-3 prostate) was 0.391 µM. It also gave a TGI (PC-3 prostate) of 1.59 µM, a GI50 (SK-MEL-2 melanoma) of 2.03 µM and a TGI (SK-MEL-2 melanoma) of 3.71 µM. It also gave a GI50 (SK-OV-3 ovarian) of 1.84 µM, a TGI (SK-OV-3 ovarian) of 3.52 µM and a GI50 (LOX IMVI melanoma) of 0.249 µM. The TGI (LOX IMVI melanoma) was 0.719 µM, the GI50 (NCI-H522 lung) was 1.61 µM and the TGI (NCI-H522 lung) was 3.17 µM. It also gave a GI50 (A498 renal) of 1.23 µM and a TGI (A498 renal) of 2.53 µM.
`Nc1nc2ccc(CNc3ccc(C(=O)NC(CC(=O)O)C(=O)O)cc3)cc2c(=O)[nH]1` (stereo not given) was tested, and the GI50 (U251 CNS) was 7.49 µM, the TGI (U251 CNS) was over 100 µM and the GI50 (HCT-15 colon) was 0.757 µM. For the same molecule, the TGI (HCT-15 colon) was over 100 µM, the GI50 (SR leukemia) was 0.52 µM and the TGI (SR leukemia) was over 100 µM. For the same molecule, the GI50 (NCI-H460 lung) was 0.593 µM, the TGI (NCI-H460 lung) was over 100 µM and the GI50 (PC-3 prostate) was 0.655 µM. It also gave a TGI (PC-3 prostate) of over 100 µM, a GI50 (SK-MEL-2 melanoma) of over 100 µM and a TGI (SK-MEL-2 melanoma) of over 100 µM. For the same molecule, the GI50 (SK-OV-3 ovarian) was over 29.1 µM, the TGI (SK-OV-3 ovarian) was over 100 µM and the GI50 (LOX IMVI melanoma) was 0.472 µM. For the same molecule, the TGI (LOX IMVI melanoma) was over 100 µM, the GI50 (NCI-H522 lung) was 14.4 µM and the TGI (NCI-H522 lung) was over 100 µM. For the same molecule, the GI50 (A498 renal) was over 38.9 µM and the TGI (A498 renal) was over 100 µM.
`O=C(/C=C(/C=C/c1cccc2[nH]ccc12)OB(F)F)/C=C/c1cccc2[nH]ccc12` was tested, and the GI50 (U251 CNS) was 0.469 µM, the TGI (U251 CNS) was 1.83 µM and the GI50 (HCT-15 colon) was 0.348 µM. The TGI (HCT-15 colon) was 1.49 µM, the GI50 (SR leukemia) was 0.46 µM and the TGI (SR leukemia) was over 100 µM. It also gave a GI50 (NCI-H460 lung) of 0.684 µM, a TGI (NCI-H460 lung) of 2.91 µM and a GI50 (PC-3 prostate) of 0.815 µM. The TGI (PC-3 prostate) was 3.41 µM, the GI50 (SK-MEL-2 melanoma) was 2.09 µM and the TGI (SK-MEL-2 melanoma) was 5.63 µM. It also gave a GI50 (SK-OV-3 ovarian) of 2.19 µM, a TGI (SK-OV-3 ovarian) of 5.77 µM and a GI50 (LOX IMVI melanoma) of 0.348 µM. It also gave a TGI (LOX IMVI melanoma) of 1.02 µM, a GI50 (NCI-H522 lung) of 0.359 µM and a TGI (NCI-H522 lung) of 2.24 µM. It also gave a GI50 (A498 renal) of 1.7 µM and a TGI (A498 renal) of 3.42 µM.
`O=C(O)CN1C(=O)OC(c2ccccc2)C1=O` (stereo not given) showed a TGI (U251 CNS) of over 100 µM, a TGI (HCT-15 colon) of over 100 µM and a TGI (SR leukemia) of over 100 µM. It also gave a TGI (NCI-H460 lung) of over 100 µM, a TGI (PC-3 prostate) of over 100 µM and a TGI (SK-MEL-2 melanoma) of over 100 µM. The TGI (SK-OV-3 ovarian) was over 100 µM, the TGI (LOX IMVI melanoma) was over 100 µM and the TGI (NCI-H522 lung) was over 100 µM. The TGI (A498 renal) was over 100 µM.
`O=S(=O)(NCCNc1nccc(-c2c(-c3ccc(F)cc3)nc3sccn23)n1)c1ccc(O)cc1` was tested, and the GI50 (U251 CNS) was 1.36 µM, the TGI (U251 CNS) was 23.4 µM and the GI50 (HCT-15 colon) was 5 µM. The TGI (HCT-15 colon) was over 100 µM, the GI50 (SR leukemia) was 1.82 µM and the TGI (SR leukemia) was 21.5 µM. It also gave a GI50 (NCI-H460 lung) of 0.845 µM, a TGI (NCI-H460 lung) of 27.8 µM and a GI50 (PC-3 prostate) of 4.51 µM. It also gave a TGI (PC-3 prostate) of 37.6 µM, a GI50 (SK-MEL-2 melanoma) of 4.18 µM and a TGI (SK-MEL-2 melanoma) of 17.3 µM. It also gave a GI50 (SK-OV-3 ovarian) of 9.17 µM, a TGI (SK-OV-3 ovarian) of 73 µM and a GI50 (LOX IMVI melanoma) of 1.88 µM. It also gave a TGI (LOX IMVI melanoma) of 49.6 µM, a GI50 (NCI-H522 lung) of 3.51 µM and a TGI (NCI-H522 lung) of 19.2 µM. The GI50 (A498 renal) was 8.8 µM and the TGI (A498 renal) was 23.2 µM.
